Literature values, collected in patent US10694745B2, “Method for controlling rust” (UPL LIMITED, priority 2013, dated 2020).

Assays:
Phakopsora pachyrhizi = details: single fungicide
soybean = details: in vivo

Structure (SMILES) | control of soybean rust (Phakopsora pachyrhizi) | phytotoxicity (soybean)
CO/C=C(/C(=O)OC)c1ccccc1Oc1cc(Oc2ccccc2C#N)ncn1 [Azoxystrobin] | good control | 
O=C(Nc1ccccc1-c1ccc(Cl)cc1)c1cccnc1Cl [Boscalid] | moderate control | 
c1ccc2[nH]c(-c3cscn3)nc2c1 [Thiabendazole] |  | phytotoxic
